# Literature values as cited in EP0486445A2, “Polyfunctional derivatives of cyclodextrin” (Chiellini, Emo, priority 1990, dated 1992).
# How the values were obtained:
# [1] = compared to the starting cyclodextrin
# [2] = compared to the starting cyclodextrin; degree of substitution lower than 7
molecule,measurement,setting,value
"COC[C@H]1O[C@@H]2O[C@H]3[C@H](O)[C@@H](OC)[C@@H](O[C@H]4[C@H](O)[C@@H](OC)[C@@H](O[C@H]5[C@H](O)[C@@H](OC)[C@@H](O[C@H]6[C@H](O)[C@@H](OC)[C@@H](O[C@H]7[C@H](O)[C@@H](OC)[C@@H](O[C@H]8[C@H](O)[C@@H](OC)[C@@H](O[C@H]1[C@H](O)[C@H]2OC)O[C@@H]8COC)O[C@@H]7COC)O[C@@H]6COC)O[C@@H]5COC)O[C@@H]4COC)O[C@@H]3COC [DM-β CD, eptakis-(2,6-O-dimethyl)-β-cyclodextrin]",water solubility,[1],much more water soluble
2-hydroxypropyl- β-cyclodextrin [HP- βCD],toxicity,[2],lower toxicity
same,water solubility,[1],much larger water solubility
hydroxyethyl-β-cyclodextrin [HE- βCD],toxicity,[2],lower toxicity
same,water solubility,[1],much larger water solubility
